Experimental data as given in patent US20020076402A1, “Enzyme-based fungicidal composition” (Universite Pierre et Marie Curie, priority 1998, published 2002).

Legend:
[1] = test system: Fusarium nivale and Fusarium roseum; experiment: Pelliculisation of corn: degree of contamination by Fusarium sp.; type: in vivo
Procedure: (§1) Germination inhibition test: The pelliculised grains were placed in Petri dishes containing the growth medium. On the fifth day, the degree of contamination (number of contaminated grains/total number of grains) and degree of germination (number of germinated grains/total number of grains) were determined and compared with those of batches pelliculised with Sepiret 01G alone.
(§2) Formulation: An aqueous suspension of Sepiret 7017 Argent composed of 7 g of commercial slip and 10 ml of water was used. 100 mg of the substances shown below was mixed with 2 ml of the above suspension and this mixture was used to pelliculise batches of 2 g of corn. This latter originated from a culture naturally contaminated with Fusarium nivale and Fusarium roseum: […]
(§3) Mixtures tested: (quantities used to pelliculise 2 g of corn: […]

corn = experiment: Pelliculisation of corn: degree of germination; type: in vivo
Procedure: When the test is applied to pelliculised grains or seeds, the degree of germination is determined by the number of grains germinated over the total number of grains, and compared with those of non pelliculised batches, or grains that are pelliculised grains in the absence of enzymes and/or their substrate.
Chitinases alone: quantity used to pelliculise 3 to 4 g of corn naturally contaminated with the phytopathogenic fungi Fusarium nivale and Fusarium roseum: 100 mg of CNase was mixed with 3.4 ml of a suspension of Sepiret 7017 Argent composed of 3.6 g of the commercial suspension and 10 ml of water.
Laminarinases alone: quantity used to pelliculise 2 g of contaminated corn: 40 mg of freeze-dried LMase with a filter of 17 units/mg were mixed with 2 ml of a suspension of Sepiret 7017 Argent composed of 3 g of the commercial suspension and 5 ml of water.
Lysozyme alone: quantity used to pelliculise 2 g of contaminated corn: 100 mg of LZ was mixed with 2 ml of a suspension of Sepiret 7017 Argent composed of 5 g of the commercial suspension and 7.1 ml of water.
as §1, §2, §3

[2] = Example 3 mono-enzymatic mixtures in Sepiret 7017 Argent, fifth day
[3] = Example 4, 100 mg substance in 2 ml Sepiret 7017 Argent suspension per 2 g corn, day five

Compound	inhibition of Fusarium sp. fungi (in words) ([1]; Example 3, enzyme alone)	Degree of contamination [1, 2] [%]	relative variation of degree of germination (corn; Example 3, vs own control)	Degree of germination (corn; [2]) [%]	Contamination [1, 3] [%]	effect on degree of contamination (in words) ([1]; Example 4, vs reference)	Germination (corn; [3]) [%]
lysozyme hydrochloride [LZ]	no effect	65	+20%	85	–	–	–
CC(=O)N[C@H]1C(O)O[C@H](CO)[C@@H](O)[C@@H]1O (stereo partly shown) [NAG, N-acetylglucosamine, reference compound]	–	–	–	–	70	no effect	65
